{
  "source": "patent US20250041232A1",
  "about": "“MICROSPHERES COMPRISING HIGH-DOSE VARENICLINE, METHOD FOR PREPARING SAME, AND PHARMACEUTICAL COMPOSITION COMPRISING SAME” (AULBIO CO., LTD., priority 2021, published 2025)",
  "assay": "Measurement of varenicline loading amount and encapsulation efficiency in microspheres (HPLC)",
  "assay_type": "physicochemical",
  "settings": "microspheres dissolved in acetonitrile/80% methanol, HPLC-UV",
  "experimental": "About 10 mg of the microspheres prepared in Example 2 and Comparative Examples 1 and 2 were taken, placed in a 20 mL flask, and completely dissolved in 2 mL of acetonitrile (manufacturer: Honeywell). It was adjusted to the mark with 80% methanol (manufacturer: Honeywell) and filtered through a 0.45 μm syringe filter. This solution was detected with an ultraviolet-visible spectrophotometer using HPLC (equipment name: Agilent). L1 (inner diameter 4.6 mm×150 mm, thickness 5 μm) was used as the column.",
  "data": [
    {"substance": "varenicline pamoate salt", "values": [
      {"measurement": "Encapsulation efficiency (%)", "result": "more than 90%"}
    ]}
  ]
}
